Here are results for eleven molecules from PubChem BioAssay (NCI).

Some test systems named below: 786-0 renal; ACHN renal; HCC-2998 colon; IGROV1 ovarian; OVCAR-8 ovarian; SF-268 CNS; SK-MEL-28 melanoma; SK-MEL-5 melanoma; OVCAR-4 ovarian; RXF 393 renal.
Assay in all cases: NCI anticancer screen, dose series, 48 h

Several values for one entry are separate records, joined by “and”; a condition that tells them apart may be missing. Identical values can stand only once.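 Five compound concentrations were applied to cells in 96-well plates for 48 hours; endpoints were derived by simple linear interpolation of the resulting dose-response curve. GI50 = concentration required for 50% inhibition of growth. TGI: concentration producing complete growth inhibition.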

`Cc1nn(C(=O)Cc2ccccc2)c2c1C(c1ccc(Cl)cc1)SC(N)=N2` (stereo unspecified): the TGI in the experiment with 786-0 renal, in the experiment with ACHN renal, with HCC-2998 colon, with IGROV1 ovarian, with OVCAR-8 ovarian and in the experiment on SF-268 CNS was greater than 100 µM in each case. In addition, the TGI in the experiment with SK-MEL-28 melanoma and with SK-MEL-5 melanoma was greater than 100 µM each time.
For `NCCSc1nc(-c2ccccc2)c(-c2ccccc2)o1`, the TGI in the experiment with 786-0 renal, with ACHN renal, with IGROV1 ovarian, with OVCAR-4 ovarian, in the experiment with OVCAR-8 ovarian and in the experiment on RXF 393 renal was greater than 100 µM in each case. Moreover, the TGI in the experiment with SF-268 CNS, in the experiment with SK-MEL-28 melanoma and in the experiment on SK-MEL-5 melanoma was greater than 100 µM each time.
Take `COc1ccc(-c2coc3c4c(ccc3c2=O)OCO4)cc1OC`: the TGI with 786-0 renal, with ACHN renal, in the experiment on HCC-2998 colon, with IGROV1 ovarian, with OVCAR-4 ovarian and in the experiment with OVCAR-8 ovarian was greater than 100 µM each time. The TGI in the experiment with SF-268 CNS, with SK-MEL-28 melanoma and with SK-MEL-5 melanoma was greater than 100 µM each time.
Regarding `O=CN1CCN(CC(O)CN2CCCCC2)CC1` (stereo unspecified), the TGI in the experiment with 786-0 renal, with ACHN renal, with IGROV1 ovarian, with OVCAR-4 ovarian, in the experiment on OVCAR-8 ovarian and in the experiment with RXF 393 renal was greater than 100 µM each time. In addition, the TGI in the experiment on SF-268 CNS, in the experiment on SK-MEL-28 melanoma and with SK-MEL-5 melanoma was greater than 100 µM throughout.
As to `COc1ccc(CCNC(=O)c2ccc(NC3=C(Cl)C(=O)N(Cc4ccccc4)C3=O)cc2)cc1OC`, the GI50 in the experiment with 786-0 renal was 3.88 µM; in the experiment on ACHN renal it was 43 µM; with OVCAR-4 ovarian it was greater than 100 µM; in the experiment on OVCAR-8 ovarian, 11.9 µM; with RXF 393 renal, 7.83 µM; in the experiment with SF-268 CNS it was 26.2 µM. The GI50 in the experiment on SK-MEL-28 melanoma is 15.1 µM; in the experiment on SK-MEL-5 melanoma, 6.27 µM. Moreover, the TGI with 786-0 renal, with ACHN renal, in the experiment with OVCAR-4 ovarian, in the experiment on OVCAR-8 ovarian, with RXF 393 renal and with SF-268 CNS was greater than 100 µM in each case. Moreover, the figures for the TGI in the experiment on SK-MEL-28 melanoma and in the experiment on SK-MEL-5 melanoma were greater than 100 µM and 42.3 µM, respectively.
Take `c1ccc2nc3c(nc2c1)sc1ccccc13`: the TGI in the experiment on 786-0 renal was 64.2 µM; in the experiment on ACHN renal it was 35.7 µM; with HCC-2998 colon, greater than 100 µM; in the experiment on IGROV1 ovarian, 51 µM; in the experiment on OVCAR-4 ovarian it was 32.9 µM; with SF-268 CNS, 46.1 µM. In addition, the TGI in the experiment on SK-MEL-28 melanoma and in the experiment with SK-MEL-5 melanoma was greater than 100 µM in each case.
For the molecule `CCCN1CN(C(C(=O)N[C@@H]2C(=O)N3C2SC(C)(C)C3C(=O)O)c2ccc(O)cc2)CSC1=S` (stereo partly specified), the TGI with 786-0 renal, in the experiment on ACHN renal, in the experiment with IGROV1 ovarian, in the experiment on OVCAR-4 ovarian, with OVCAR-8 ovarian and in the experiment on SF-268 CNS was greater than 100 µM in each case. Also, the TGI with SK-MEL-28 melanoma and in the experiment with SK-MEL-5 melanoma was greater than 100 µM each time.
Regarding `Cc1ccc(NC(=O)CSc2nnc(-c3ccc(N=Cc4ccc(Cl)cc4)cc3)o2)cc1`, the TGI in the experiment on 786-0 renal, in the experiment with ACHN renal, in the experiment on OVCAR-4 ovarian, with OVCAR-8 ovarian, with RXF 393 renal and with SF-268 CNS was greater than 100 µM in each case. Further, the TGI in the experiment with SK-MEL-28 melanoma and in the experiment on SK-MEL-5 melanoma was greater than 100 µM in each case.
Regarding `CCCO/S(=N\S(=O)(=O)c1ccccc1)c1ccccc1[N+](=O)[O-]` (stereo unspecified), the TGI in the experiment on 786-0 renal, with ACHN renal, in the experiment on HCC-2998 colon, with IGROV1 ovarian, with OVCAR-4 ovarian and with OVCAR-8 ovarian was greater than 100 µM throughout. The TGI in the experiment on SF-268 CNS, with SK-MEL-28 melanoma and in the experiment with SK-MEL-5 melanoma was greater than 100 µM throughout.
As to `CC(C)N(CCn1c2c3ccccc3ccc2c2oc(=O)c3ccccc3c21)C(C)C`, the TGI in the experiment on 786-0 renal, with ACHN renal, in the experiment on IGROV1 ovarian, with OVCAR-4 ovarian, in the experiment with OVCAR-8 ovarian and in the experiment with RXF 393 renal was greater than 100 µM in each case. Also, the TGI in the experiment on SF-268 CNS and in the experiment on SK-MEL-28 melanoma was greater than 100 µM each time.
For the molecule `CN1C(=O)/C(=C/c2c(Cl)n(C)c3ccccc23)c2ccccc21`, the GI50 is 3.09 µM with 786-0 renal; 4.85 µM and 1.7 µM in the experiment on ACHN renal; 4.34 µM in the experiment with IGROV1 ovarian; 8.99 µM and 1.82 µM in the experiment on OVCAR-4 ovarian; 5.49 µM in the experiment on OVCAR-8 ovarian; 7.89 µM and 1.56 µM with RXF 393 renal. In addition, the GI50 in the experiment on SF-268 CNS was 9.2 µM; in the experiment on SK-MEL-28 melanoma it was 5.24 µM and 1.62 µM; in the experiment on SK-MEL-5 melanoma it was 2.1 µM and 1.96 µM. The TGI with ACHN renal is 3.11 µM; with OVCAR-4 ovarian, 3.45 µM; with RXF 393 renal, 3.84 µM; in the experiment on SK-MEL-28 melanoma, 3.05 µM; in the experiment on SK-MEL-5 melanoma, 6.51 µM and 3.46 µM.
